# Entries after “also recorded” stand apart in the source; their conditions may differ. Counter-ions that a name gives are not always drawn.
# What was measured:
# [1] = system: formalin-evoked pain behavior; test: Formalin-evoked pain behavior (paw licking, early and late phase) in mice; assay type: in vivo, male Swiss mice; conditions: for early phase of formalin-evoked pain behavior / late phase of formalin-evoked pain behavior: drug injected in the paw (i.pl.) together with formalin; for early phase of formalin-evoked pain behavior: 0-15 min; for late phase of formalin-evoked pain behavior: 15-30 min; for formalin-evoked nociceptive response / pain behavior (whole testing period): i.pl., 50 μg; for blockade of the antinociceptive effects of anandamide plus PEA (0.1 μg each): antagonist 0.1 mg per kg i.v., prior administration; for reversal of PEA-induced analgesia: prior administration of antagonist, PEA 50 μg i.pl.; for reversal of the antinociceptive effects of anandamide, WIN-55212-2 and HU-210: prior systemic administration of antagonist
# Method: For instance, injection of dilute formalin in the hind-paws of freely moving rodents evokes a pain behavior consisting of two temporally distinct phases of licking and flexing of the injected limb. An early phase involving activation of primary sensory fibers begins immediately after formalin administration, reaches a peak within 5 min, and rapidly declines. Following an interval of 10-15 min, a second phase of sustained pain behavior appears, in which sensory fiber activity is accompanied by local inflammation and central sensitization.
# Saline (10 μl) containing 5% formalin and 10% DMSO was injected subcutaneously in the hind-paws of male Swiss mice (20-25 g, Nossan, Italy). The duration of paw licking was monitored by an observer blind to the experimental treatment for periods of 0-15 min (early phase) and 15-30 min (late phase) after formalin administration. For the experiment in FIG. 4, pain behavior was monitored for 5 min periods during a 30 min period following formalin injection.
# [2] = system: nerve conduction, blinking reflex of the cornea; test: Rabbit corneal reflex test (local anaesthetic activity); assay type: in vivo, male New Zealand rabbits; conditions: aqueous 2% solution with 30% DMSO into the conjunctival sac
# Method: Local anaesthetic activity was evaluated in male New Zealand rabbits (2. 4-2.8 kg, Morini, Italy) by measuring the number of stimuli to the cornea, delivered with a Frey's horse-hair, necessary to produce the blinking reflex. Aqueous 2% solutions of PEA or lidocaine (a standard local anaesthetic) containing 30% DMSO were applied into the conjuctival sac.
# [3] = system: inflammatory edemas in the hind paws; test: Formalin-induced inflammatory paw edema (plethysmometer); assay type: in vivo, Swiss mice; conditions: after injection of formalin plus PEA (50 μg per paw); six mice; formalin alone 0.37±0.006, control 0.18±0.003
# [4] = system: behavioral response to acute thermal stimuli; test: Hot-plate test (time delays to escape jumping, 55.5 C) after intracerebroventricular administration; assay type: in vivo, mice; conditions: for hot-plate latencies: 10 μg (10 μg each for AEA/PEA), n = 6
# [5] = rats, 10 min after i.pl. injection
# [6] = 5 min after i.c.v. administration
# [7] = 10 min after i.c.v. administration
# [8] = 15 min after i.c.v. administration
# [9] = 20 min after i.c.v. administration
# [10] = 30 min after i.c.v. administration
# [11] = 40 min after i.c.v. administration
# [12] = 60 min after i.c.v. administration
# [13] = antagonist alone, systemic administration, 0.1 mg per kg i.v.
compound,measurement,setting,value
CCCCCCC(C)(C)c1cc(O)c2c(c1)OC(C)(C)[C@@H]1CC=C(CO)C[C@@H]21 [HU-210],early phase of formalin-evoked pain behavior,[1],blocked
same,late phase of formalin-evoked pain behavior,[1],blocked
"CCCCCCCCCCCCCCCC(=O)NCCO [PEA, palmitylethanolamide]",nerve conduction in the rabbit corneal reflex test (local anesthetic activity),[2],did not affect
same,paw volume,[3],0.35 ± 0.006 mL
same,early phase of formalin-evoked pain behavior,[1],inhibited
same,late phase of formalin-evoked pain behavior,[1],inhibited
same,"antinociceptive potency, local (i.pl.) compared with systemic (i.v. or i.p.) administration",[1]; i.pl. vs i.v. or i.p.,more potent when administered locally
same,formalin-evoked nociceptive response / pain behavior (whole testing period),[1],inhibits
same,hot-plate latencies,[4]; [6],22 ± 3 s
same,hot-plate latencies,[4]; [7],23 ± 3 s
same,hot-plate latencies,[4]; [8],21 ± 2 s
same,hot-plate latencies,[4]; [9],25 ± 4 s
same,hot-plate latencies,[4]; [10],26 ± 5 s
same,hot-plate latencies,[4]; [11],22 ± 4 s
same,hot-plate latencies,[4]; [12],24 ± 2 s
same,enhancement of the inhibitory activity of anandamide in the hot-plate test,[4]; both injected in the cerebral ventricles,did not enhance
same,"behavioral responses to acute thermal stimuli, hot-plate test",[4]; injection in the cerebral ventricles,did not affect
"Cc1c(C(=O)NN2CCCCC2)nn(-c2ccc(Cl)cc2Cl)c1-c1ccc(Cl)cc1 [SR141716A, [N-(piperidin-1-yl)-5-(4-chlorophenyl)-1-(2,4-dichlorophenyl)-4-methyl-1H-pyrazole-3-carboxamide. HCl]]",blockade of the antinociceptive effects of anandamide plus PEA (0.1 μg each),[1],prevent
same,reversal of PEA-induced analgesia,[1],ineffective
same,"reversal of the antinociceptive effects of anandamide, WIN-55212-2 and HU-210",[1]; 0.1 mg per kg i.v.,reversed
Cc1c(C(=O)c2cccc3ccccc23)c2cccc3c2n1[C@H](CN1CCOCC1)CO3 [WIN-55212-2],early phase of formalin-evoked pain behavior,[1],blocked
same,late phase of formalin-evoked pain behavior,[1],blocked
CCCCC/C=C\C/C=C\C/C=C\C/C=C\CCCC(=O)NCCO [[^3H]anandamide],radioactivity in cerebellum,[5],165±67 dpm per g
same,radioactivity in forebrain,[5],79±19 dpm per g
same,radioactivity in spinal cord,[5],90±48 dpm per g
same,radioactivity in injected paw,[5]; mean±s.e.m.,6648±820 dpm per g
same,recovered [3H]anandamide remaining associated with the injected paw,[5]; three experiments,94%
"CCCCC/C=C\C/C=C\C/C=C\C/C=C\CCCC(=O)NCCO [anandamide, arachidonylethanolamide]",early phase of formalin-evoked pain behavior,[1],completely blocked
same,late phase of formalin-evoked pain behavior,[1],lack of effect; also recorded: no effect
same,"potency in preventing formalin-evoked pain behavior, i.pl. relative to i.v.",[1]; i.pl. vs i.v.,100 times
same,formalin-evoked nociceptive response / pain behavior (whole testing period),[1],inhibits
same,effect on formalin-evoked pain behavior,[1]; intraperitoneal (i.p.),no effect
same,"half-maximal inhibitory dose (ID50), formalin-evoked pain behavior",[1]; intraplantar (i.pl.),0.1 mg per kg
same,"half-maximal inhibitory dose (ID50), formalin-evoked pain behavior",[1]; intravenous (i.v.),10 mg per kg
same,hot-plate latencies,[4]; [6],24 ± 4 s
same,hot-plate latencies,[4]; [7],23 ± 3 s
same,hot-plate latencies,[4]; [8],29 ± 3 s
same,hot-plate latencies,[4]; [9],35 ± 2 s
same,hot-plate latencies,[4]; [10],40 ± 3 s
same,hot-plate latencies,[4]; [11],30 ± 3 s
same,hot-plate latencies,[4]; [12],28 ± 3 s
CCCCC/C=C\C/C=C\C/C=C\C/C=C\CCCC(=O)N[C@H](C)CO [methanandamide],formalin-evoked nociceptive response / pain behavior (whole testing period),[1],inhibited pain behavior throughout the testing period
C=CCN1CC[C@]23c4c5ccc(O)c4O[C@H]2C(=O)CC[C@@]3(O)[C@H]1C5 [naloxone],reversal of PEA-induced analgesia,[1],ineffective
"N-[(1S)-endo-1,3,3-trimethyl bicyclo [2.2.1]heptan-2-yl]-5-(4-chloro-3-methylphenyl)-1-(4-methylbenzyl)-pyrazole-3-carboxamide [SR144528]",blockade of the antinociceptive effects of anandamide plus PEA (0.1 μg each),[1],prevent
same,intrinsic effect of antagonist on early phase of formalin-evoked pain behavior,[1]; [13],selective enhancement; also recorded: selectively enhanced
same,intrinsic effect of antagonist on late phase of formalin-evoked pain behavior,[1]; [13],not
same,reversal of PEA-induced analgesia,[1],completely reversed
same,"reversal of the antinociceptive effects of anandamide, WIN-55212-2 and HU-210",[1]; 0.1 mg per kg i.v.,not

# — patent US6656972B2, “Control of pain with endogenous cannabinoids” (Neurosciences Research Foundation, Inc., priority 1998, dated 2003)
